Assay results taken from publication PMC10286969, “Characterization of the biochemical activity and tumor-promoting role of the dual protein methyltransferase METL-13/METTL13 in Caenorhabditis elegans” (PLOS ONE, 2023).

Molecular target: T1, MT13-C (C-terminal MTase domain fragment of METL-13) (Caenorhabditis elegans, UniProt Q17539)
T1 construct: C-terminal methyltransferase fragment, residues 213-656, N-terminal His6 tag (pET28a), expressed in E. coli, Ni-NTA purified
T1 sequence (Q17539 213-656): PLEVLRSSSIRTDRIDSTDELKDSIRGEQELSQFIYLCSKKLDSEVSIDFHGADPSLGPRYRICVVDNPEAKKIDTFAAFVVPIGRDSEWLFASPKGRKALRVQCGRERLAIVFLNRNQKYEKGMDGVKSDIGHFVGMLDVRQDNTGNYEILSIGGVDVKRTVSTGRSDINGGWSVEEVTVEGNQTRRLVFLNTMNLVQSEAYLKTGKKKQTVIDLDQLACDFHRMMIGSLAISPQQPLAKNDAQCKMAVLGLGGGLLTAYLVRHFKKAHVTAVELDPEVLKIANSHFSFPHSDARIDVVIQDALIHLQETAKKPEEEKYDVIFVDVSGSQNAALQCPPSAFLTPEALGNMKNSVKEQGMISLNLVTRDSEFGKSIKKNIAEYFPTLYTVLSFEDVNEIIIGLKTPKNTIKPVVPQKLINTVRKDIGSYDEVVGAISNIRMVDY
Assay: in vitro methyltransferase assay, SDS-PAGE fluorography
Assay type: biochemical
Details: methyl donor; protein substrate recombinant human eEF1A1 with C-terminal His tag (N-terminal G2 methylation); labelled compound (tritium); pH 7.4, 100 mM NaCl, 10% glycerol, 30 °C, 1 h

C[S+](CC[C@H](N)C(=O)O)C[C@H]1O[C@@H](n2cnc3c(N)ncnc32)[C@H](O)[C@@H]1O (stereo partly shown) [[^3H]-AdoMet]
in vitro methyltransferase assay, SDS-PAGE fluorography: C. elegans MT13-N or MT13-C as enzymes, human eEF1A1 as the substrate and [^3H]AdoMet
